Columns and labels:
Format in all cases: in vivo
[1] = tested on: Echinochloa crus-galli var. formosensis; experiment: Test Example 1: herbicidal effect test by soil application in paddy rice; details: Echinochloa crus-galli, soil, 336 h; 120 g active ingredient per 10 ares; applied immediately after sowing, flooded pots; 14 days after application; read-out: weed inhibition rate
How it was run: (§1)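 Pre-emergence paddy soil application, 120 g a.i./10 a, emulsifiable concentrate diluted in water, applied by dropper right after sowing. Seeds (30/species) sown 0–1 cm in puddled, fertilized soil; flooded ~3 cm; glass greenhouse.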

Scirpus juncoides [2] = experiment: as above; details: Schoenoplectiella juncoides, soil, 336 h; 120 g active ingredient per 10 ares; applied immediately after sowing, flooded pots; 14 days after application; read-out: weed inhibition rate
How it was run: as §1

[3] = tested on: Echinochloa crus-galli var. formosensis; experiment: Test Example 2: herbicidal effect test by application during growth period of paddy rice; details: Echinochloa crus-galli; 120 g per 10 ares; applied seven days after sowing, flooded pots; 14 days after application; read-out: weed inhibition rate
How it was run: (§2)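 Greenhouse pots of flooded paddy soil, seeded shallowly with 30 seeds per weed, are treated on day 7 by dropper with diluted emulsifiable concentrate equal to 120 g a.i./10 a. Duplicate pots are scored for inhibition rate 14 days post-application.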

Scirpus juncoides [4] = experiment: as above; details: Schoenoplectiella juncoides; 120 g per 10 ares; applied seven days after sowing, flooded pots; 14 days after application; read-out: weed inhibition rate
How it was run: as §2

Digitaria ciliaris [5] = experiment: Test Example 3: herbicidal effect test by soil application in upland field; details: Digitaria ciliaris, 120 g per 10 ares, sprayed one day after sowing, 14 days after application, read-out: weed inhibition rate
How it was run: (§3)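 Weed inhibition (%) was assessed 14 days after treatment, in duplicate per concentration group. Seeds had been mixed into the upper 1 cm of upland alluvial loam, and the soil surface was sprayed one day later with the diluted emulsifiable concentrate at 120 g active ingredient per 10 ares.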

Echinochloa crus-galli [6] = experiment: as above; details: Echinochloa crus-galli, 120 g per 10 ares, sprayed one day after sowing, 14 days after application, read-out: weed inhibition rate
How it was run: as §3

Digitaria ciliaris [7] = experiment: Test Example 4: herbicidal effect test by stem and leaf treatment in upland field; details: Digitaria ciliaris; 120 g per 10 ares; sprayed seven days after sowing, upland soil; 14 days after application; read-out: weed inhibition rate
Echinochloa crus-galli [8] = experiment: as above; details: Echinochloa crus-galli; 120 g per 10 ares; sprayed seven days after sowing, upland soil; 14 days after application; read-out: weed inhibition rate
[9] = tested on: Echinochloa crus-galli var. formosensis; experiment: Test Example 5: herbicidal effect test by soil application in paddy rice (low dose); details: Echinochloa crus-galli, soil, 336 h; 7.5 g per 10 ares; applied immediately after sowing, flooded pots; 14 days after application; read-out: weed inhibition rate
How it was run: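 7.5 g a.i./10 a applied by dropper into ~3 cm floodwater immediately post-sowing (seeds 0–1 cm, 30 per species; puddled fertilized paddy soil, glasshouse). Duplicates; day-14 inhibition %.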

[10] = tested on: Echinochloa crus-galli var. formosensis; experiment: Test Example 6: herbicidal effect test by application during growth period of paddy rice (low dose); details: Echinochloa crus-galli; 7.5 g per 10 ares; applied seven days after sowing, flooded pots; 14 days after application; read-out: weed inhibition rate
How it was run: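 Formulated compound, diluted in water, was dropped onto flooded pots seven days post-sowing at 7.5 g a.i. per 10 ares. Seeds had been sown 0-1 cm deep in puddled paddy soil under ~3 cm water in a glass greenhouse. Inhibition (%) assessed at 14 days; duplicate pots.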

Digitaria ciliaris [11] = experiment: Test Example 7: herbicidal effect test by soil application in upland field (low dose); details: Digitaria ciliaris, 7.5 g per 10 ares, sprayed one day after sowing, 14 days after application, read-out: weed inhibition rate
How it was run: (§4)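 Duplicate pots of alluvial loam, seeds incorporated in the surface 1 cm. Soil surface sprayed 1 d after sowing (EC in water, 100 L/10 a; 7.5 g a.i./10 a). Endpoint: % inhibition, day 14.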

Echinochloa crus-galli [12] = experiment: as above; details: Echinochloa crus-galli, 7.5 g per 10 ares, sprayed one day after sowing, 14 days after application, read-out: weed inhibition rate
How it was run: as §4

Digitaria ciliaris [13] = experiment: Test Example 8: herbicidal effect test by stem and leaf treatment in upland field (low dose); details: Digitaria ciliaris; 7.5 g per 10 ares; sprayed seven days after sowing, upland soil; 14 days after application; read-out: weed inhibition rate
Echinochloa crus-galli [14] = experiment: as above; details: Echinochloa crus-galli; 7.5 g per 10 ares; sprayed seven days after sowing, upland soil; 14 days after application; read-out: weed inhibition rate

CC(C)C12C=CC(C)(O1)C(OCc1ccccc1)C2 (stereo not shown) [3-752, 4-methyl-5-phenylmethoxy-1-isopropyl-7-oxabicyclo[2.2.1]hept-2-ene]
≥ 80%: pest or weed control at 1200 g/ha [1] | pest or weed control at 1200 g/ha (Scirpus juncoides [2]) | inhibition at 1200 g/ha [3] | inhibition at 1200 g/ha (Scirpus juncoides [4]) | inhibition at 1200 g/ha (Digitaria ciliaris [5]) | inhibition at 1200 g/ha (Echinochloa crus-galli [6]) | inhibition at 1200 g/ha (Digitaria ciliaris [7]) | inhibition at 1200 g/ha (Echinochloa crus-galli [8]) | inhibition at 75 g/ha [9] | inhibition at 75 g/ha [10] | inhibition at 75 g/ha (Digitaria ciliaris [11]) | inhibition at 75 g/ha (Echinochloa crus-galli [12]) | inhibition at 75 g/ha (Digitaria ciliaris [13]) | inhibition at 75 g/ha (Echinochloa crus-galli [14])

Cc1cccc(C)c1CO[C@@H]1C[C@]2(C(C)C)O[C@@]1(C)C[C@@H]2I [1-777, (1R,2S,4S,5R)-5-[(2,6-dimethylphenyl)methoxy]-2-iodo-1-isopropyl-4-methyl-7-oxabicyclo[2.2.1]heptane]
≥ 80%: pest or weed control at 1200 g/ha [1] | pest or weed control at 1200 g/ha (Scirpus juncoides [2]) | inhibition at 1200 g/ha [3] | inhibition at 1200 g/ha (Scirpus juncoides [4]) | inhibition at 1200 g/ha (Digitaria ciliaris [5]) | inhibition at 1200 g/ha (Echinochloa crus-galli [6]) | inhibition at 1200 g/ha (Digitaria ciliaris [7]) | inhibition at 1200 g/ha (Echinochloa crus-galli [8]) | inhibition at 75 g/ha [9] | inhibition at 75 g/ha [10] | inhibition at 75 g/ha (Digitaria ciliaris [11]) | inhibition at 75 g/ha (Echinochloa crus-galli [12]) | inhibition at 75 g/ha (Digitaria ciliaris [13]) | inhibition at 75 g/ha (Echinochloa crus-galli [14])

CC(C)[C@]12C[C@@H](OCc3c(F)cccc3F)[C@](C)(C[C@@H]1I)O2 [1-778, (1R,2S,4S,5R)-5-[(2,6-difluorophenyl)methoxy]-2-iodo-1-isopropyl-4-methyl-7-oxabicyclo[2.2.1]heptane]
≥ 80%: pest or weed control at 1200 g/ha [1] | pest or weed control at 1200 g/ha (Scirpus juncoides [2]) | inhibition at 1200 g/ha [3] | inhibition at 1200 g/ha (Scirpus juncoides [4]) | inhibition at 1200 g/ha (Digitaria ciliaris [5]) | inhibition at 1200 g/ha (Echinochloa crus-galli [6]) | inhibition at 1200 g/ha (Digitaria ciliaris [7]) | inhibition at 1200 g/ha (Echinochloa crus-galli [8]) | inhibition at 75 g/ha [9] | inhibition at 75 g/ha [10] | inhibition at 75 g/ha (Digitaria ciliaris [11]) | inhibition at 75 g/ha (Echinochloa crus-galli [12]) | inhibition at 75 g/ha (Digitaria ciliaris [13]) | inhibition at 75 g/ha (Echinochloa crus-galli [14])

CC(C)[C@]12C[C@@H](OCc3ccccc3I)[C@](C)(C[C@@H]1I)O2 [1-762, (1R,2S,4S,5R)-2-iodo-5-[(2-iodophenyl)methoxy]-1-isopropyl-4-methyl-7-oxabicyclo[2.2.1]heptane]
≥ 80%: pest or weed control at 1200 g/ha [1] | pest or weed control at 1200 g/ha (Scirpus juncoides [2]) | inhibition at 1200 g/ha [3] | inhibition at 1200 g/ha (Scirpus juncoides [4]) | inhibition at 1200 g/ha (Digitaria ciliaris [5]) | inhibition at 1200 g/ha (Echinochloa crus-galli [6]) | inhibition at 1200 g/ha (Digitaria ciliaris [7]) | inhibition at 1200 g/ha (Echinochloa crus-galli [8]) | inhibition at 75 g/ha [9] | inhibition at 75 g/ha [10] | inhibition at 75 g/ha (Digitaria ciliaris [11]) | inhibition at 75 g/ha (Echinochloa crus-galli [12]) | inhibition at 75 g/ha (Digitaria ciliaris [13]) | inhibition at 75 g/ha (Echinochloa crus-galli [14])

CC#CCO[C@@H]1C[C@]2(C(C)C)O[C@@]1(C)C[C@@H]2Cl [1-614, (1R,2S,4S,5R)-5-but-2-ynoxy-2-chloro-1-isopropyl-4-methyl-7-oxabicyclo[2.2.1]heptane]
≥ 80%: pest or weed control at 1200 g/ha [1] | pest or weed control at 1200 g/ha (Scirpus juncoides [2]) | inhibition at 1200 g/ha [3] | inhibition at 1200 g/ha (Scirpus juncoides [4]) | inhibition at 1200 g/ha (Digitaria ciliaris [5]) | inhibition at 1200 g/ha (Echinochloa crus-galli [6]) | inhibition at 1200 g/ha (Digitaria ciliaris [7]) | inhibition at 1200 g/ha (Echinochloa crus-galli [8]) | inhibition at 75 g/ha [9] | inhibition at 75 g/ha [10] | inhibition at 75 g/ha (Digitaria ciliaris [11]) | inhibition at 75 g/ha (Echinochloa crus-galli [12]) | inhibition at 75 g/ha (Digitaria ciliaris [13]) | inhibition at 75 g/ha (Echinochloa crus-galli [14])
